Experimental data as given in patent US20250388605A1, “HETEROBIFUNCTIONAL COMPOUNDS AND METHODS OF TREATING DISEASE” (Halda Therapeutics OpCo, Inc., priority 2022, published 2025).

Legend:
VCaP cells = assay: Cellular growth inhibition assay for VCaP cells, CellTiter-Glo; type: cell-based, human; conditions: 72 hours
Method: VCaP cells were purchased from American Type Cell Culture (ATCC Cat #CRL2876) and then seeded on poly-D-lysine coated, black clear-bottom 384-well plates at 5000/well in 25 μL Dulbecco's Modified Eagle Medium (DMEM) supplemented with 10% w/w Fetal bovine serum (FBS) and 1% w/w Pen-Strep. Pen-Strep is a commercially available mixture of penicillin G and streptomycin, which is used in mammalian cell culture media to prevent bacterial contamination. Dulbecco's Modified Eagle Medium (DMEM) supplemented with 10% w/w fetal bovine serum (FBS) and 1% w/w Pen-Strep is herein referred to as Treatment Medium. Following seeding of cells in the plates, the plates were spun at 300×g for 30 seconds, then equilibrated to room temperature for 30 minutes, and then deposited in a humidified tissue culture incubator maintained at 37° C. with 5% CO2.
(§1) At 24 hours after seeding of the cells, dilutions of test compound were prepared in DMSO and dissolved in Treatment Medium, to achieve a final DMSO concentration of 0.5% w/w, thereby providing the Test Compound Solution. A 25 μL aliquot of the Test Compound Solution was added to cells in the well plates. An equal volume of a solution containing DMSO and Treatment Medium was used as a negative control. Following treatment of cells with Test Compound Solution or said equal volume of a solution containing DMSO and Treatment Medium, the plates were spun at 300×g for 30 seconds, and then left in an incubator for 72 hours.
(§2) At the end of the treatment duration, cell viability was quantified with CellTiter-Glo 2.0 reagent (Promega Cat #G9243). For this purpose, plates were equilibrated to room temperature for 30 minutes, and then 25 μL of CellTiter-Glo 2.0 reagent was added to cells in the plate wells. Plates were then agitated on a shaker for two minutes at 500 rpm and subsequently incubated at room temperature for 10 minutes. Following incubation, the plates were spun at 3000×g for 30 seconds, then sealed with an optical adhesive cover, and luminescence readings were measured with an EnVision Plate Reader.
(§3) Data was normalized using zero luminescence for baseline. A four-parameter non-linear regression curve fit was applied to dose-response data in GraphPad Prism data analysis software to determine the half-maximal growth inhibitory concentration (GI50) for each test compound.

[1] = tested on: T-Rex 293 cell line SC3 cells lacking increased expression of androgen receptor protein; assay: Cellular growth inhibition, T-Rex 293 SC3 cells without doxycycline (no increased androgen receptor expression), CellTiter-Glo; type: cell-based; conditions: T-Rex 293 SC3 cells not exposed to doxycycline (no increased androgen receptor expression), 72 hours
Method: (§4) The following types of cells were prepared for this experiment: (i) a T-Rex 293 cell line having increased expression of androgen receptor protein due to exposure to doxycycline and (ii) a T-Rex 293 cell line lacking increased expression of androgen receptor protein. Ability of the test compounds to inhibit proliferation of the foregoing cell types was evaluated according to the procedures set forth below.
(§5) The doxycycline-inducible androgen receptor protein expressing cell line was established using the following protocol: T-Rex 293 cells were purchased from Invitrogen (Cat #R71007) and transfected using Lipofectamine 2000 with the wild-type androgen receptor protein sequence cloned into the pcDNA4/TO vector. Transfected cells were selected using 400 μg/mL Zeocin (Invitrogen Cat #R25001). Following selection, single clones were raised and maintained in Dulbecco's Modified Eagle Medium (DMEM) supplemented with 10% w/w Tetracycline-free fetal bovine serum (FBS) and 250 μg/mL Zeocin. Clones were analyzed for expression of androgen receptor protein in the presence and absence of 10 ng/mL doxycycline (Sigma Cat #D9891), and a single doxycycline-inducible clone (hereinafter “SC3”) was selected for use in downstream assays.
(§6) The SC3 cells were seeded on poly-D-lysine coated, black clear-bottom 384-well plates at 2500/well, in 25 μL Phenol Red Free Dulbecco's Modified Eagle Medium (DMEM) supplemented with 10% w/w charcoal-dextran treated fetal bovine serum (FBS) and 1% w/w pen-strep, with or without 10 ng/mL doxycycline. Pen-Strep is a commercially available mixture of penicillin G and streptomycin, which is used in mammalian cell culture media to prevent bacterial contamination. Phenol Red Free Dulbecco's Modified Eagle Medium (DMEM) supplemented with 10% w/w charcoal-dextran treated fetal bovine serum (FBS) and 1% w/w pen-strep, with or without 10 ng/mL doxycycline is herein referred to as Treatment Medium. Following seeding of cells in the plates, the plates were spun at 300×g for 30 seconds, then equilibrated to room temperature for 30 minutes, and then deposited in a humidified tissue culture incubator maintained at 37° C. with 5% CO2.
as §1, §2, §3

[2] = tested on: T-Rex 293 cell line SC3 cells having increased expression of androgen receptor protein due to exposure to doxycycline; assay: Cellular growth inhibition, T-Rex 293 SC3 cells with doxycycline (increased androgen receptor expression), CellTiter-Glo; type: cell-based; conditions: T-Rex 293 SC3 cells with 10 ng/mL doxycycline (increased androgen receptor expression), 72 hours, CellTiter-Glo 2.0
Method: as §4, §5, §6, §1, §2, §3

Structure (SMILES) | GI50 (VCaP cells; Homo sapiens) [nM] | GI50 [1] [nM] | GI50 [2] [nM] | GI50 (VCaP cells) [nM]
CCS(=O)(=O)Nc1ccc(Oc2cccc(CCCOC3CCN(c4ncc(C(=O)N[C@H]5C(C)(C)[C@H](Oc6ccc(C#N)c(Cl)c6)C5(C)C)cn4)CC3)c2F)c(-c2cn(C)c(=O)c3[nH]ccc23)c1 [Compound I-154] | < 500 | < 500 | < 500 | 
CCS(=O)(=O)Nc1ccc(Oc2cccc(OCCCC3CCN(c4ncc(C(=O)N[C@H]5C(C)(C)[C@H](Oc6ccc(C#N)c(Cl)c6)C5(C)C)cn4)CC3)c2F)c(-c2cn(C)c(=O)c3[nH]ccc23)c1 [Compound I-155] | < 500 | > 3000 | < 500 | 
CCS(=O)(=O)Cc1ccc(Oc2cccc(CCOC3CCN(c4ncc(C(=O)N[C@H]5C(C)(C)[C@H](Oc6ccc(C#N)c(Cl)c6)C5(C)C)cn4)CC3)c2)c(-c2cn(C)c(=O)c3[nH]ccc23)c1 [Compound I-159] |  | < 500 | < 500 | < 500
CCS(=O)(=O)Cc1ccc(Oc2cccc(CCOC3CCN(c4ncc(C(=O)N[C@H]5C(C)(C)[C@H](Oc6ccc(C#N)c(Cl)c6)C5(C)C)cn4)CC3)c2F)c(-c2cn(C)c(=O)c3[nH]ccc23)c1 [Compound I-160] |  | < 500 | < 500 | < 500
CCS(=O)(=O)Nc1cc(F)c(Oc2cccc(OCCOC3CCN(c4ncc(C(=O)N[C@H]5C(C)(C)[C@H](Oc6ccc(C#N)c(Cl)c6)C5(C)C)cn4)CC3)c2)c(-c2cn(C)c(=O)c3[nH]ccc23)c1 [Compound I-161] | < 500 | > 3000 | < 500 | 
CCS(=O)(=O)Nc1ccc(Oc2cccc(OCCOC3CCN(c4ccc(C(=O)N[C@H]5C(C)(C)[C@H](Oc6ccc(C#N)c(Cl)c6)C5(C)C)nn4)CC3)c2F)c(-c2cn(C)c(=O)c3[nH]ccc23)c1 [Compound I-162] | < 500 | > 3000 | < 500 | 
Cn1cc(-c2cc(NS(=O)(=O)C(F)(F)F)ccc2Oc2cccc(OCCOC3CCN(c4ncc(C(=O)N[C@H]5C(C)(C)[C@H](Oc6ccc(C#N)c(Cl)c6)C5(C)C)cn4)CC3)c2F)c2cc[nH]c2c1=O [Compound I-163, N-[3-(3-chloro-4-cyano-phenoxy)-2,2,4,4-tetramethyl-cyclobutyl]-2-[4-[2-[2-fluoro-3-[2-(6-methyl-7-oxo-1H-pyrrolo[2,3-c]pyridin-4-yl)-4-(trifluoromethylsulfonylamino)phenoxy]phenoxy]ethoxy]-1-piperidyl]pyrimidine-5-carboxamide] | 500 to 1500 | > 3000 | < 500 | 
CCS(=O)(=O)Cc1ccc(Oc2cccc(OCCOC3CCN(c4ccc(C(=O)N[C@H]5C(C)(C)[C@H](Oc6ccc(C#N)c(Cl)c6)C5(C)C)cn4)CC3)c2F)c(-c2cn(C)c(=O)c3[nH]ccc23)c1 [Compound I-166] | < 500 | < 500 | < 500 | 
CCS(=O)(=O)Cc1ccc(Oc2cccc(OCCOC3CCN(c4ccc(C(=O)N[C@H]5C(C)(C)[C@H](Oc6ccc(C#N)c(Cl)c6)C5(C)C)nn4)CC3)c2F)c(-c2cn(C)c(=O)c3[nH]ccc23)c1 [Compound I-167] | < 500 | > 3000 | < 500 | 
CCS(=O)(=O)Cc1ccc(Oc2cccc(OCCCC3CCN(c4ncc(C(=O)N[C@H]5C(C)(C)[C@H](Oc6ccc(C#N)c(Cl)c6)C5(C)C)cn4)CC3)c2F)c(-c2cn(C)c(=O)c3[nH]ccc23)c1 [Compound I-168] | < 500 | > 3000 | < 500 | 
CCS(=O)(=O)c1ccc(Oc2cccc(OCCOC3CCN(c4ccc(C(=O)N[C@H]5C(C)(C)[C@H](Oc6ccc(C#N)c(Cl)c6)C5(C)C)nn4)CC3)c2F)c(-c2cn(C)c(=O)c3[nH]ccc23)c1 [Compound I-169] | < 500 | < 500 | < 500 | 
CCS(=O)(=O)Nc1ccc(Oc2cccc(N(C)C3CC(C4CCN(c5ncc(C(=O)N[C@H]6C(C)(C)[C@H](Oc7ccc(C#N)c(Cl)c7)C6(C)C)cn5)CC4)C3)c2)c(-c2cn(C)c(=O)c3[nH]ccc23)c1 (stereo partly drawn) [Compound I-172] |  | > 3000 | < 500 | > 3000
